Experimental data taken from patent publication US20230271770A1, “Anti-Viral Pharmaceutical Formulations Administered Via Devices for Lung Targeted Delivery” (priority 2020, published 2023).
Like-named read-outs stand apart in the source and are kept apart here.

Key:
[1] = tested on: SARS-CoV-2; conditions: Reference [3]; read-out: EC 50, for SARS-Cov2, Treatment 24 hrs; cited from earlier work
[2] = tested on: SARS-CoV-2; conditions: Reference [4]; read-out: EC 50, for SARS-Cov2, Treatment 48 hrs; cited from earlier work
[3] = tested on: SARS-CoV-2; conditions: Reference [3], cited from earlier work
[4] = In-line Cascade Impactor (Andersen) evaluation, MDI actuator through elbow connection and ventilator tubing; format: physicochemical; design: Delivered <1.1 mcm / Delivered <4.7 mcm: unit not given here; conditions: Alveoli, in-Line Tube (55 cm), HCQB-e, connection w/inner channel, Ave, 5% EtOH, 200 mcg
Procedure: An example of a ventilator device, for example ventilator device 1700A, was tested and compared to a self-administrable, handheld MDI to determine the target site delivery efficiency in the ventilator circuit as compared to the MDI delivery efficiency without the ventilator circuit (e.g. no elbow connector or ventilator tubing).
Prime HCQ valve by discharging a predetermined number of actuations to waste. Discharge 10 actuations with actuator H004B-a into the cascade impaction sampling apparatus through an elbow connection w/inner channel and an in-line tubing (55 cm long).
Prime HCQ valve by discharging a predetermined number of actuations to waste. Discharge 10 actuations with actuator H004B-c into the cascade impaction sampling apparatus through an elbow connection with an inner channel and an in-line tubing (55 cm long).
Prime HCQ valve by discharging a predetermined number of actuations to waste. […]

| SMILES | EC50 [1] | EC50 [2] | EC50 ([3]; read-out: EC 50, for SARS-Cov2, Prophylactic Treatment 24 hrs) | EC50 ([3]; read-out: EC 50, for SARS-Cov2, Prophylactic Treatment 48 hrs) | Delivery Rate ([4]; <1.1 mcm) | Delivered <1.1 mcm [4] |
| --- | --- | --- | --- | --- | --- | --- |
| CCN(CC)CCCC(C)Nc1ccnc2cc(Cl)ccc12 (stereo not shown) [CQ, chloroquine] | 23.9 µM | 1.13 µM | > 100 µM | 18 µM | – | – |
| NC(=O)c1ncn([C@@H]2O[C@H](CO)[C@@H](O)[C@H]2O)n1 [Ribavirin] | – | 106 µM | – | – | – | – |
| CCN(CCO)CCCC(C)Nc1ccnc2cc(Cl)ccc12 (stereo not shown) [HICQ Base] | – | – | – | – | 33.0% | 66.0 |
